{
  "source": "paper PMC10942258",
  "about": "(PLOS Biology, 2024)",
  "target": "VP35 (EBOV VP35) (Ebola virus - Mayinga, Zaire, 1976, UniProt Q05127)",
  "sequence (Q05127 whole entry, looked up)": "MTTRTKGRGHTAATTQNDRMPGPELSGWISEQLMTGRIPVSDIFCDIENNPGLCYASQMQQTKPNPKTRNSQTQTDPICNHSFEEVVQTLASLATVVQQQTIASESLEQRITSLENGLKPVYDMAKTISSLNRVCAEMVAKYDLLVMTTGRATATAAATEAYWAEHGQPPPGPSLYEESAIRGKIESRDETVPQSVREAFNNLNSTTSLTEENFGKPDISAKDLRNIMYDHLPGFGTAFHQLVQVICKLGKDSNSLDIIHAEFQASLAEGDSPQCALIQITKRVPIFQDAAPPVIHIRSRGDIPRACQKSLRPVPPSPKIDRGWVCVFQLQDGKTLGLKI",
  "assay": "biochemical",
  "assay_type": "binding",
  "data": [
    {"smiles": "Cc1oc(C)c(S(N)(=O)=O)c1C(=O)O", "note": "[SFC, 2,5-Dimethyl-4-sulfamoyl furan-3-carboxylic acid]", "values": [
      {"measurement": "Kd", "value": "~375", "unit": "nM"}
    ]}
  ]
}
